US8853424B2 (Japan Science and Technology Agency, priority 2008, dated 2014)

Key:
transglutaminase (TGase) = experiment: Measurement of TG (TGase inhibitory activity, monodansyl cadaverine / N,N-dimethylcasein fluorescence, FDSS 3000); format: biochemical
Protocol: For example, the method described in the Example can be performed.
The compound of the present invention (10 mM, 1 μL) was taken in a 96-well plate (Nunc, 96 Well Black Plate with Clear Bottom), an enzyme reaction solution (100 mM HEPES-NaOH, pH 7.5, 1 mM CaCl2, 20 μM monodansyl cadaverine, 0.05 mg/mL N,N-dimethylcasein, 5 μg/mL TGase) (0.1 ml) was added and the mixture was sufficiently mixed without making foams. The mixture was set on a fluorescence drug screening system FDSS 3000 (Hamamatsu Photonics K.K.), and changes in the fluorescence wavelength per unit time at 340 nm were measured, based on which the TGase inhibitory activity of the compound of the present invention was calculated. As a control, change in the fluorescence when 1 μL of DMSO (dimethyl sulfoxide) was added instead of the compound of the present invention was taken as 100, and TG50 was when the activity decreased to half due to the compound of the present invention.

[1] = system: Truncated N-terminal huntington 150 Q-EGFP-Neuron 2a cells; experiment: Measurement of x-Fold (polyglutamine aggregation inhibitory activity); format: cell-based
Protocol: In the present invention, the polyglutamine aggregation inhibitory activity (x-Fold) can be measured, for example, by the method described in the Example.
The number of the aggregated cells, and the total number of cells were counted by Array Scan V T1 (manufactured by Cellomics, Pittuburg, USA), and the ratio of the aggregated cells to the total number of cells was determined (x-Fold). […]

[2] = TGase activity with compound (10 mM, 1 μL in 0.1 ml enzyme reaction solution), DMSO control taken as 100
[3] = TGase inhibitory activity value, Table 1
[4] = polyglutamine aggregation inhibitory activity, Table 1
[5] = ratio of aggregated cells to total number of cells, compound 20 μM, 20 hr, almost 1 without compound, smaller = stronger inhibition

Row | Molecule | TGase activity remaining (% of DMSO control = 100) (transglutaminase (TGase); [2]) | TGase activity remaining (% of DMSO control = 100) (transglutaminase (TGase); [3]) | TGase activity remaining (% of DMSO control = 100) (transglutaminase (TGase); TGase inhibitory activity value, Table 1, listed as 4142) | TGase activity remaining (% of DMSO control = 100) (transglutaminase (TGase); TGase inhibitory activity measurement, unit not given) | TGase activity remaining (% of DMSO control = 100) (transglutaminase (TGase); TGase inhibitory activity value, Table 1, listed as 2039) | x-Fold [1, 4] | x-Fold [1, 5] | x-Fold ([1]; polyglutamine aggregation inhibitory activity, Table 1, listed as 4142) | x-Fold ([1]; polyglutamine aggregation, Truncated N-terminal huntington 150 Q-EGFP-Neuron 2a cells) | x-Fold ([1]; polyglutamine aggregation inhibitory activity, Table 1, listed as 2039)
1 | bis((4,4′-phenyl methylaminoethoxyboryl)benzyloxybenzyl)methylaminoethoxyborane [Example 190] | 99 | 99 |  |  |  | 1.05 | 1.05 |  |  | 
2 | NCCOB(c1ccc(C(F)(F)F)cc1)c1ccc(C(F)(F)F)cc1 [Example 181, di(trifluoromethylphenyl) 2-aminoethylborinate] | 54 |  |  |  |  |  | 0.69 |  |  | 
3 | CCCCB(CCCC)OC(=O)C(C)N (centres unmarked) [Example 159, dibutyl(alanine-O,N)borane] | 102 | 102 |  |  |  | 0.96 | 0.96 |  |  | 
4 | NCCOB(c1cc(Cl)ccc1F)c1cc(Cl)ccc1F [Example 100, aminoethyl bis(3-chloro-6-fluorophenyl)borinate] | 119 | 119 |  |  |  | 0.97 | 0.97 |  |  | 
5 | OB(c1ccc(COCc2ccc(B(O)c3ccc(C(F)(F)F)cc3)cc2)cc1)c1ccc(C(F)(F)F)cc1 [Example 407, bis(4,4′-(p-trifluoromethylphenyl-hydroxyboryl)benzyl)ether] | 77 |  |  |  |  |  | 1.02 |  |  | 
6 | NCCOB(c1ccccc1)c1cccc(B(OCCN)c2ccccc2)c1 [Example 120, 1,3-bis(phenyl-2-aminoethoxyboryl)benzene] | 88 | 88 |  |  |  | 1.08 | 1.08 |  |  | 
7 | NCCC(N)C(=O)OB(c1ccccc1)c1ccccc1 (centres unmarked) [Example 178] | 142 |  |  |  | 142 |  | 0.89 |  |  | 0.89
8 | COCOCc1ccc(B(OCCN(C)C)c2ccc(Oc3ccc(B(OCCN(C)C)c4ccccc4)cc3)cc2)cc1 [Example 167, (4-(phenyl-dimethylaminoethoxyboryl)phenyl)-(4′-(methoxymethoxymethylphenyl-dimethylaminoethoxyboryl)phenyl)ether] | 21 | 21 |  |  |  | 0.71 | 0.71 |  |  | 

Further lines, with some results ahead:

Row | TGase activity remaining (% of DMSO control = 100) (transglutaminase (TGase); [2]) | TGase activity remaining (% of DMSO control = 100) (transglutaminase (TGase); [3]) | TGase activity remaining (% of DMSO control = 100) (transglutaminase (TGase); TGase inhibitory activity value, Table 1, listed as 4142) | TGase activity remaining (% of DMSO control = 100) (transglutaminase (TGase); TGase inhibitory activity measurement, unit not given) | TGase activity remaining (% of DMSO control = 100) (transglutaminase (TGase); TGase inhibitory activity value, Table 1, listed as 2039) | Molecule | x-Fold [1, 4] | x-Fold [1, 5] | x-Fold ([1]; polyglutamine aggregation inhibitory activity, Table 1, listed as 4142) | x-Fold ([1]; polyglutamine aggregation, Truncated N-terminal huntington 150 Q-EGFP-Neuron 2a cells) | x-Fold ([1]; polyglutamine aggregation inhibitory activity, Table 1, listed as 2039)
9 | 116 |  |  |  |  | CN(C)CCOB(c1ccccc1)c1ccc(Oc2ccc(B(OCCN(C)C)c3ccccc3)cc2)cc1 [Example 395, bis(4,4′-(phenyl-N,N-dimethylaminoethoxyboryl)phenyl)ether] |  | 0.86 |  |  | 
10 | 112 |  | 112 |  |  | CN(C)CCOB(c1ccc(C(F)(F)F)cc1)c1ccc(C(F)(F)F)cc1 [Example 233] |  | 1.12 | 1.12 |  | 
11 | 106 |  |  | 106 |  | CCCCB(CCCC)OC(=O)C(N)Cc1ccccc1 (centres unmarked) [Example 493, dibutyl(phenylalanine-O,N)borane] |  | 1.03 |  | 1.03 | 
12 | 103 | 103 |  |  |  | OB(c1ccccc1)c1ccc(B(O)c2ccccc2)o1 [Example 383, bis(2,5-(phenylhydroxyboryl))furan] | 0.92 | 0.92 |  |  | 
13 | 116 | 116 |  |  |  | Cc1ccc(B(OC(=O)C(N)CCN)c2ccc(C)c(Cl)c2)cc1Cl (centres unmarked) [Example 293, di(3-chloro-4-methylphenyl)(2,4-diaminobutyrate-O,N)borane] | 0.91 | 0.91 |  |  | 
14 | 101 | 101 |  |  |  | NCCOB(c1ccccc1)c1ccccc1B(OCCN)c1ccccc1 [Example 298, 1,2-di(phenylaminoethoxyboryl)benzene] | 1.01 | 1.01 |  |  | 
